Several values for one entry are separate records, joined by “and”; a condition that tells them apart may be missing. Identical values can stand only once. Where a SMILES comes first, the peptide text is derived from it. [ ]: non-standard residue; d: D form.
System: GH Release
Experiment: In vivo GH release in pentobarbital anesthetized rats (serum GH by RIA)
Conditions: for GH Released: Table 5, anesthetized rats; for GH Released / GH Released by Compound in Column A: mean ± SEM, six rats; for GH Released by Compound in Column A: Table 4, pentobarbital anesthetized rats; for GH Released by Compound in Column A / GH Released Serum GH ng/ml ± SEM (N=6): sacrificed 10 minutes after final injection; for GH Released Serum GH ng/ml ± SEM (N=6): Table 6, pentobarbital anesthetized rats (table title); for activity compared with peptides having another residue in the A₂ position: in words, summary of Tables 3, 4, 5 and 6, rats
Procedure: Immature female Sprague-Dawley rats were obtained from the Charles River Laboratories (Wilmington, MA). After arrival they were housed at 25 °C with a 14:10 hour light:dark cycle. Water and Purina rat chow were available ad libitum. Pups were kept with their mothers until 21 days of age.
Twenty-six day old rats, six rats per treatment group, were anesthetized interperitoneally with 50 mg/Kg of pentobarbital 20 minutes prior to i.v. treatment with peptide. Normal saline with 0.1% gelatin was the vehicle for intravenous (i.v.) injections of the peptides. The anesthetized rats, weighing 55-65 grams, were injected i.v. with the quantity of growth hormone releasing compounds indicated in Tables 3, 4 and 5. Injection was made as a 0.2 mL solution into the jugular vein.
All animals were sacrificed by guillotine 10 minutes after the final test injection (see Tables 3 and 4). Trunk blood for the determination of blood GH levels was collected following decapitation. After allowing the blood to clot, it was centrifuged and the serum was separated from the clot. Serum was kept fozen until the day of sampling for radioimmunasay (RIA) determination of growth hormone levels according to the following procedure, as developed by the National Institute of Arthritis, Diabetes and Digestive and Kidney Diseases (NIADDK).
Reagents are generally added to the RIA analysis tubes at a single sitting, at refrigerator temperature (about 4 °C) in the following sequence: • (a) buffer, • (b) "cold" (i.e., non-radioactive) standard or unknown serum sample to be analyzed, • (c) radio-iodinated growth hormone antigen, and • (d) growth hormone antiserum. Reagent addition is generally carried out so that there is achieved a final RIA tube dilution of about 1:30,000 (antiserum to total liquid volume; vol:vol).
The mixed reagents are then typically incubated at room temperature (about 25 °C) for about 24 hours prior to addition of a second antibody (e.g., goat or rabbit anti-monkey gamma globulin serum) which binds to and causes precipitation of the complexed growth hormone anti serum. Precipitated contents of the RIA tubes are then analyzed for the number of counts in a specified period of time in a gamma scintillation counter. A standard curve is prepared by plotting number of radioactive counts versus growth hormone (GH) level. GH levels of unknowns are then determined by reference to the standard curve.
Serum GH was measured by RIA with reagents provided by the National Hormone and Pituitary Program.
Serum levels in Tables 3, 4, 5 and 6 are recorded in ng/mL in terms of the rat GH standard of 0.61 International Units/mg (IU/mg). Data is recorded as the mean +/- standard error of the mean (SEM). Statistical analysis was performed with Student's t-test. NS means the difference was not statistically significant. In Tables 3, 4, 5 and 6 the results shown are the average of studies with six rats.

[1] = Total Dose 0.3 µg, several experiments with different controls
[2] = Total Dose 1.0 µg, several experiments with different controls

SMILES: C[C@H](NC(=O)[C@@H](CC(=O)O)NC(=O)[C@@H](N)Cc1c[nH]cn1)C(=O)N[C@@H](Cc1c[nH]c2ccccc12)C(=O)N[C@H](Cc1ccccc1)C(=O)N[C@@H](CCCCN)C(N)=O [His-DAsp-Ala-Trp-DPhe-Lys-NH₂] (HELM PEPTIDE1{H.[dD].A.W.[dF].K.[am]}$$$$V2.0)
- GH Released (Total Dose 1.0 µg i.v.): 154 ± 63 ng/mL
- GH Released (Total Dose 3.0 µg i.v.): 155 ± 34 ng/mL
- GH Released (Total Dose 10.0 µg i.v.): 163 ± 44 ng/mL
- GH Released (Total Dose 30.0 µg i.v.): 224 ± 62 ng/mL
- GH Released (Total Dose 100.0 µg i.v.): 178 ± 83 ng/mL

SMILES: C[C@H](N)C(=O)N[C@@H](Cc1c[nH]cn1)C(=O)N[C@H](Cc1c[nH]c2ccccc12)C(=O)N[C@@H](C)C(=O)N[C@@H](Cc1c[nH]c2ccccc12)C(=O)N[C@H](Cc1ccccc1)C(=O)N[C@@H](CCCCN)C(N)=O [AlaHisDTrpAlaTrpDPheLysNH₂] (HELM PEPTIDE1{A.H.[dW].A.W.[dF].K.[am]}$$$$V2.0)
- GH Released by Compound in Column A (Total Dose .3 µg i.v.): 901 ± 21 ng/mL

SMILES: C[C@H](NC(=O)[C@@H](Cc1c[nH]c2ccccc12)NC(=O)[C@@H](N)Cc1c[nH]cn1)C(=O)N[C@@H](Cc1c[nH]c2ccccc12)C(=O)N[C@H](Cc1ccccc1)C(=O)N[C@@H](CCCCN)C(N)=O [His-DTrp-Ala-Trp-DPhe-Lys-NH₂] (HELM PEPTIDE1{H.[dW].A.W.[dF].K.[am]}$$$$V2.0)
- GH Released (Total Dose 1.0 µg i.v.): 1531 ± 303 ng/mL
- GH Released (Total Dose 3.0 µg i.v.): 2349 ± 267 ng/mL
- GH Released (Total Dose .1 µg i.v.): 512 ± 43 ng/mL
- GH Released (Total Dose .3 µg i.v.): 566 ± 114 ng/mL

SMILES: C[C@H](N)C(=O)N[C@@H](Cc1c[nH]cn1)C(=O)N1CCC[C@@H]1C(=O)N[C@@H](C)C(=O)N[C@@H](Cc1c[nH]c2ccccc12)C(=O)N[C@H](Cc1ccccc1)C(=O)N[C@@H](CCCCN)C(N)=O [AlaHisDProAlaTrpDPheLysNH₂] (HELM PEPTIDE1{A.H.[dP].A.W.[dF].K.[am]}$$$$V2.0)
- GH Released by Compound in Column A (Total Dose .3 µg i.v.): 262 ± 51 ng/mL

SMILES: C[C@H](N)C(=O)N[C@@H](Cc1c[nH]cn1)C(=O)N[C@H](Cc1ccccc1)C(=O)N[C@@H](C)C(=O)N[C@@H](Cc1c[nH]c2ccccc12)C(=O)N[C@H](Cc1ccccc1)C(=O)N[C@@H](CCCCN)C(N)=O [AlaHisDPheAlaTrpDPheLysNH₂] (HELM PEPTIDE1{A.H.[dF].A.W.[dF].K.[am]}$$$$V2.0)
- GH Released by Compound in Column A (Total Dose .3 µg i.v.): 616 ± 74 ng/mL

SMILES: C[C@H](NC(=O)[C@@H](N)Cc1c[nH]cn1)C(=O)N[C@H](Cc1c[nH]c2ccccc12)C(=O)N[C@@H](C)C(=O)N[C@@H](Cc1c[nH]c2ccccc12)C(=O)N[C@H](Cc1ccccc1)C(=O)N[C@@H](CCCCN)C(N)=O [His-Ala-DTrp-Ala-Trp-DPhe-Lys-NH₂] (HELM PEPTIDE1{H.A.[dW].A.W.[dF].K.[am]}$$$$V2.0)
- GH Released (Total Dose 1.0 µg i.v.): 830 ± 103 ng/mL
- GH Released (Total Dose 3.0 µg i.v.): 2588 ± 341 ng/mL
- GH Released (Total Dose .3 µg i.v.): 261 ± 32 ng/mL

SMILES: C[C@H](NC(=O)[C@@H](Cc1ccccc1)NC(=O)[C@H](Cc1c[nH]c2ccccc12)NC(=O)[C@H](C)NC(=O)[C@@H](Cc1ccc2ccccc2c1)NC(=O)[C@@H](N)Cc1c[nH]cn1)C(=O)N[C@@H](CCCCN)C(N)=O [His-D^βNal-Ala-Trp-DPhe-Ala-Lys-NH₂] (HELM PEPTIDE1{H.[O=C([C@@H](Cc1ccc2ccccc2c1)N[*:1])[*:2]].A.W.[dF].A.K.[am]}$$$$V2.0)
- GH Released (Total Dose 1.0 µg i.v.): 1593 ± 359 ng/mL
- GH Released (Total Dose 3.0 µg i.v.): 3337 ± 583 ng/mL
- GH Released (Total Dose .1 µg i.v.): 484 ± 89 ng/mL
- GH Released (Total Dose .3 µg i.v.): 971 ± 241 ng/mL

SMILES: CSC[C@@H](NC(=O)[C@@H](N)Cc1c[nH]cn1)C(=O)N[C@@H](C)C(=O)N[C@@H](Cc1c[nH]c2ccccc12)C(=O)N[C@H](Cc1ccccc1)C(=O)N[C@@H](CCCCN)C(N)=O [His-DCys(SMe)-Ala-Trp-DPhe-Lys-NH₂] (H-H[dC](Me)AW[dF]K-NH2)
- GH Released (Total Dose 1.0 µg i.v.): 193 ± 28 ng/mL
- GH Released (Total Dose 3.0 µg i.v.): 180 ± 34 ng/mL
- GH Released (Total Dose .3 µg i.v.): 178 ± 28 ng/mL

SMILES: C[C@H](N)C(=O)N[C@@H](Cc1c[nH]cn1)C(=O)N[C@H](Cc1ccc2ccccc2c1)C(=O)N[C@@H](C)C(=O)N[C@@H](Cc1c[nH]c2ccccc12)C(=O)N[C@H](Cc1ccccc1)C(=O)N[C@@H](CCCCN)C(N)=O [Ala-His-DβNal-Ala-Trp-DPhe-Lys-NH₂, Ala-His-D^βNal-Ala-Trp-DPhe-Lys-NH₂] (HELM PEPTIDE1{A.H.[O=C([C@@H](Cc1ccc2ccccc2c1)N[*:1])[*:2]].A.W.[dF].K.[am]}$$$$V2.0)
- GH Released Serum GH ng/ml ± SEM (N=6) (Total Dose 0.1 µg, several experiments with different controls): 822 ± 243 ng/mL and 610 ± 90 ng/mL
- GH Released Serum GH ng/ml ± SEM (N=6) [1]: 1418 ± 302 ng/mL and 1746 ± 318 ng/mL and 1549 ± 292 ng/mL and 1140 ± 187 ng/mL
- GH Released Serum GH ng/ml ± SEM (N=6) [2]: 2201 ± 269 ng/mL and 2610 ± 176 ng/mL and 2180 ± 284 ng/mL and 2909 ± 257 ng/mL
- GH Released Serum GH ng/ml ± SEM (N=6) (Total Dose 3.0 µg): 3686 ± 436 ng/mL
- activity compared with peptides having another residue in the A₂ position: more active than the equivalent DTrp compound

SMILES: C[C@H](NC(=O)[C@@H](Cc1ccc2ccccc2c1)NC(=O)[C@@H](N)Cc1c[nH]cn1)C(=O)N[C@@H](Cc1c[nH]c2ccccc12)C(=O)N[C@H](Cc1ccccc1)C(=O)N[C@@H](CCCCN)C(N)=O [His-D^βNal-Ala-Trp-DPhe-Lys-NH₂] (HELM PEPTIDE1{H.[O=C([C@@H](Cc1ccc2ccccc2c1)N[*:1])[*:2]].A.W.[dF].K.[am]}$$$$V2.0)
- activity compared with peptides having another residue in the A₂ position: more active than compounds having DTrp, D^αNal, DAsp, and DCys (SMe) in the A₂ position

SMILES: C[C@H](NC(=O)[C@@H](Cc1ccccc1)NC(=O)[C@H](Cc1c[nH]c2ccccc12)NC(=O)[C@H](C)NC(=O)[C@@H](Cc1c[nH]c2ccccc12)NC(=O)[C@@H](N)Cc1c[nH]cn1)C(=O)N[C@@H](CCCCN)C(N)=O [His-DTrp-Ala-Trp-DPhe-Ala-Lys-NH₂] (HELM PEPTIDE1{H.[dW].A.W.[dF].A.K.[am]}$$$$V2.0)
- GH Released (Total Dose 1.0 µg i.v.): 1965 ± 366 ng/mL
- GH Released (Total Dose 3.0 µg i.v.): 4553 ± 670 ng/mL
- GH Released (Total Dose .1 µg i.v.): 420 ± 105 ng/mL
- GH Released (Total Dose .3 µg i.v.): 900 ± 163 ng/mL

SMILES: C[C@H](N)C(=O)N[C@@H](Cc1c[nH]cn1)C(=O)N[C@H](Cc1c[nH]cn1)C(=O)N[C@@H](C)C(=O)N[C@@H](Cc1c[nH]c2ccccc12)C(=O)N[C@H](Cc1ccccc1)C(=O)N[C@@H](CCCCN)C(N)=O [AlaHisDHisAlaTrpDPheLysNH₂] (HELM PEPTIDE1{A.H.[dH].A.W.[dF].K.[am]}$$$$V2.0)
- GH Released by Compound in Column A (Total Dose .3 µg i.v.): 268 ± 54 ng/mL

SMILES: C[C@H](NC(=O)[C@@H](Cc1cccc2ccccc12)NC(=O)[C@@H](N)Cc1c[nH]cn1)C(=O)N[C@@H](Cc1c[nH]c2ccccc12)C(=O)N[C@H](Cc1ccccc1)C(=O)N[C@@H](CCCCN)C(N)=O [His-D^αNal-Ala-Trp-DPhe-Lys-NH₂] (HELM PEPTIDE1{H.[O=C([C@@H](Cc1cccc2ccccc12)N[*:1])[*:2]].A.W.[dF].K.[am]}$$$$V2.0)
- GH Released (Total Dose 1.0 µg i.v.): 1130 ± 179 ng/mL
- GH Released (Total Dose 3.0 µg i.v.): 2319 ± 139 ng/mL
- GH Released (Total Dose .1 µg i.v.): 280 ± 70 ng/mL
- GH Released (Total Dose .3 µg i.v.): 439 ± 122 ng/mL

SMILES: C[C@H](N)C(=O)N[C@H](Cc1ccc2ccccc2c1)C(=O)N[C@@H](C)C(=O)N[C@@H](Cc1c[nH]c2ccccc12)C(=O)N[C@H](Cc1ccccc1)C(=O)N[C@@H](CCCCN)C(N)=O [Ala-DβNal-Ala-Trp-DPhe-Lys-NH₂] (HELM PEPTIDE1{A.[O=C([C@@H](Cc1ccc2ccccc2c1)N[*:1])[*:2]].A.W.[dF].K.[am]}$$$$V2.0)
- GH Released Serum GH ng/ml ± SEM (N=6) [1]: 363 ± 73 ng/mL
- GH Released Serum GH ng/ml ± SEM (N=6) [2]: 1450 ± 294 ng/mL
- GH Released Serum GH ng/ml ± SEM (N=6) (Total Dose 3.0 µg): 2072 ± 208 ng/mL
- GH Released Serum GH ng/ml ± SEM (N=6) (Total Dose 10.0 µg): 2698 ± 369 ng/mL

From patent EP0540676B1, “PEPTIDE COMPOUNDS HAVING GROWTH HORMONE RELEASING ACTIVITY” (POLYGEN HOLDING CORPORATION, priority 1990, dated 1994)
